US20220267310A1, “QUINAZOLINE AND CINNOLINE DERIVATIVES AS DNA-PK INHIBITOR” (MEDSHINE DISCOVERY INC., priority 2019, published 2022)

Tests used:
[1] = Pharmacokinetic evaluation in mice, IV and PO; format: in vivo, Balb/c female mice; settings: for Bioavailability (%): mouse
In short: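 Female Balb/c mice (18–20 g) dosed IV at 1 or 2 mg/kg or PO at 2 or 10 mg/kg, compound in 10% DMSO/50% PEG400/40% water. Plasma levels by LC-MS/MS over time; non-compartmental parameters (C0, Cmax, Tmax, T1/2, Vdss, Cl, AUC0-last, bioavailability) derived.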

[2] = test system: human head and neck cancer FaDu cell subcutaneous xenograft tumor; experiment: FaDu subcutaneous xenograft, mono and combination with radiotherapy; format: in vivo; settings: for Tumor volume (mm^3), 3 days after administration: day 3; for Tumor volume (mm^3), 3 days after administration / Tumor volume (mm^3), 7 days after administration / Tumor volume (mm^3), 10 days after administration / Tumor volume (mm^3), 14 days after administration / Tumor volume (mm^3), 17 days after administration / Tumor volume (mm^3), 23 days after administration / Tumor volume (mm^3), 28 days after administration / Tumor volume (mm^3), 31 days after administration / Tumor volume (mm^3), 35 days after administration / Tumor volume (mm^3), 42 days after administration / Tumor volume (mm^3), 49 days after administration / Tumor volume (mm^3), 56 days after administration / Tumor volume (mm^3), 63 days after administration / Tumor volume (mm^3), 70 days after administration / Tumor volume (mm^3) (0th day) / Tumor volume (mm^3) (21th day): average ± SEM, n = 8; for Tumor volume (mm^3), 7 days after administration: day 7; for Tumor volume (mm^3), 10 days after administration: day 10; for Tumor volume (mm^3), 14 days after administration: day 14; for Tumor volume (mm^3), 17 days after administration: day 17; for Tumor volume (mm^3), 23 days after administration: day 23; for Tumor volume (mm^3), 28 days after administration: day 28; for Tumor volume (mm^3), 31 days after administration: day 31; for Tumor volume (mm^3), 35 days after administration: day 35; for Tumor volume (mm^3), 42 days after administration: day 42; for Tumor volume (mm^3), 49 days after administration: day 49; for Tumor volume (mm^3), 56 days after administration: day 56; for Tumor volume (mm^3), 63 days after administration: day 63; for Tumor volume (mm^3), 70 days after administration: day 70; for RTV (21th day) / T/C (%) (21th day) / TGI (%) (21th day) / Tumor volume (mm^3) (0th day) / Tumor volume (mm^3) (21th day): PO
Procedure: Experiment purpose: The antitumor activity of the tested compound was evaluated in a nude mouse model of human head and neck cancer FaDu cell subcutaneous xenograft tumor
Experimental animals: Female BALB/c nude mice, 6-8 weeks old, weighing 17-23 grams; supplier: B&K Universal Group Limited
Human head and neck cancer FaDu cell (ATCC, Manassas. Virginiaite, item number: HTB-43) was cultured in vitro in a culture condition of EMEM medium with 10% fetal bovine serum, 100 U/mL penicillin and 100 μg/mL streptomycin, incubated at 37° C. and 5% CO2. Conventional digestive treatment passage was carried out using pancreatic enzyme—EDTA twice a week.
Each mouse was subcutaneously inoculated with 0.1 mL ([…]) FaDu cells at the right dorsal position, and when the average tumor volume reaches about 106 mm^3, randomization was used for initiating drug administration.
The tested compound was prepared as a 5 mg/mL clarified solution with 10% DMSO+50% polyethylene glycol 400+40% water as the solvent. Preparation was conducted every three days.
The experimental indicators refers to study whether tumor growth was inhibited, delayed, or cured. Tumor diameter was measured twice a week with a vernier caliper. The calculation formula of the tumor volume was V=0.5a×b^2, and a and b represent the long diameter and short diameter of the tumor, respectively.
The antitumor efficacy of the compound was evaluated by TGI (%) or relative tumor proliferation rate T/C (%). TGI (%) reflects the tumor growth inhibition rate. The calculation of TGI (%): TGI (%)=[1−(average tumor volume at the end of administration of a certain treatment group−average tumor volume at the beginning of administration of the treatment group)/(average tumor volume at the end of treatment in solvent control group−average tumor volume at the beginning of treatment in solvent control group)]×control group.
Relative tumor proliferation rate T/C (%): the calculation formula was as follows: T/C %=[…] TRTV/CRTV group (TRTV: treatment group RTV: CRTV: negative control group RTV). According to results of tumor measurement. Relative Tumor Volume (RTV) was calculated by the formula RTV=Vt/V0, where V0 was the average tumor volume measured in group administration (i.e., d0), and Vt was the average tumor volume measured in a certain single measurement. TRTV and CRTV collect data on the same day.
Statistic analysis includes an average value and a standard error (SEM) of tumor volume at each time point for each group. […] If there was no significant difference in F value, Dunnet (2-sided) method was applied to analysis. All data were analyzed using SPSS 17.0. P<0.05 was considered as having a significant difference.

[3] = 25 mg/kg, QD + radiotherapy 2 Gy
[4] = 50 mg/kg, QD + radiotherapy 2 Gy

COc1ccc(C(O)c2cc(-c3cnnc4c(F)c(N5CCOCC5)cc(F)c34)c(F)cc2Cl)nn1 (single isomer, unassigned) [Embodiment 19]
AUC0-last ([1]; IV(1 mg/kg), mouse plasma): 1.569 µM·h
C0 ([1]; IV(1 mg/kg), mouse plasma): 1290 nM
Cl ([1]; IV(1 mg/kg), mouse plasma): 20.2 mL/min/kg
T1/2 ([1]; IV(1 mg/kg), mouse plasma): 1.31 h
Tlast ([1]; IV(1 mg/kg), mouse plasma): 8.00 h
Vdss ([1]; IV(1 mg/kg), mouse plasma): 2.13 L/kg
AUC0-last ([1]; IV(2 mg/kg), mouse plasma): 3.832 µM·h
C0 ([1]; IV(2 mg/kg), mouse plasma): 2250 nM
Tlast ([1]; IV(2 mg/kg), mouse plasma): 8.00 h
Bioavailability (%) ([1]; PO(2 mg/kg)): 47.9%
AUC0-last ([1]; PO(2 mg/kg), mouse plasma): 1.503 µM·h
Cmax ([1]; PO(2 mg/kg), mouse plasma): 448 nM
T1/2 ([1]; PO(2 mg/kg), mouse plasma): 8.14 h
Tlast ([1]; PO(2 mg/kg), mouse plasma): 8.00 h
Tmax ([1]; PO(2 mg/kg), mouse plasma): 0.25 h
Bioavailability (%) ([1]; PO(10 mg/kg)): 70.5%
AUC0-last ([1]; PO(10 mg/kg), mouse plasma): 13.737 µM·h
Cmax ([1]; PO(10 mg/kg), mouse plasma): 2740 nM
T1/2 ([1]; PO(10 mg/kg), mouse plasma): 1.78 h
Tlast ([1]; PO(10 mg/kg), mouse plasma): 12.0 h
Tmax ([1]; PO(10 mg/kg), mouse plasma): 1.00 h
Tumor volume (mm^3), 3 days after administration ([2]; 25 mg/kg + 2 Gy): 172 ± 16 mm^3
Tumor volume (mm^3), 7 days after administration ([2]; 25 mg/kg + 2 Gy): 136 ± 11 mm^3
Tumor volume (mm^3), 10 days after administration ([2]; 25 mg/kg + 2 Gy): 76 ± 11 mm^3
Tumor volume (mm^3), 14 days after administration ([2]; 25 mg/kg + 2 Gy): 29 ± 5 mm^3
Tumor volume (mm^3), 17 days after administration ([2]; 25 mg/kg + 2 Gy): 11 ± 3 mm^3
Tumor volume (mm^3), 23 days after administration ([2]; 25 mg/kg + 2 Gy): 1 ± 1 mm^3
Tumor volume (mm^3), 28 days after administration ([2]; 25 mg/kg + 2 Gy): 0 ± 0 mm^3
Tumor volume (mm^3), 31 days after administration ([2]; 25 mg/kg + 2 Gy): 0 ± 0 mm^3
Tumor volume (mm^3), 35 days after administration ([2]; 25 mg/kg + 2 Gy): 0 ± 0 mm^3
Tumor volume (mm^3), 42 days after administration ([2]; 25 mg/kg + 2 Gy): 0 ± 0 mm^3
Tumor volume (mm^3), 49 days after administration ([2]; 25 mg/kg + 2 Gy): 0 ± 0 mm^3
Tumor volume (mm^3), 56 days after administration ([2]; 25 mg/kg + 2 Gy): 0 ± 0 mm^3
Tumor volume (mm^3), 63 days after administration ([2]; 25 mg/kg + 2 Gy): 0 ± 0 mm^3
Tumor volume (mm^3), 70 days after administration ([2]; 25 mg/kg + 2 Gy): 0 ± 0 mm^3
RTV (21th day) [2, 3]: 0.01 ± 0.01
T/C (%) (21th day) [2, 3]: 0.08%
TGI (%) (21th day) [2, 3]: 108.61%
Tumor volume (mm^3) (0th day) ([2]; 25 mg/kg, QD + radiotherapy 2 Gy, 5-day radiotherapy, 2-day withdrawal): 106 ± 6 mm^3
Tumor volume (mm^3) (21th day) [2, 3]: 1 ± 1 mm^3
Tumor volume (mm^3), 3 days after administration ([2]; 50 mg/kg + 2 Gy): 175 ± 14 mm^3
Tumor volume (mm^3), 7 days after administration ([2]; 50 mg/kg + 2 Gy): 155 ± 17 mm^3
Tumor volume (mm^3), 10 days after administration ([2]; 50 mg/kg + 2 Gy): 97 ± 16 mm^3
Tumor volume (mm^3), 14 days after administration ([2]; 50 mg/kg + 2 Gy): 45 ± 10 mm^3
Tumor volume (mm^3), 17 days after administration ([2]; 50 mg/kg + 2 Gy): 12 ± 5 mm^3
Tumor volume (mm^3), 23 days after administration ([2]; 50 mg/kg + 2 Gy): 1 ± 1 mm^3
Tumor volume (mm^3), 28 days after administration ([2]; 50 mg/kg + 2 Gy): 1 ± 0 mm^3
Tumor volume (mm^3), 31 days after administration ([2]; 50 mg/kg + 2 Gy): 0 ± 0 mm^3
Tumor volume (mm^3), 35 days after administration ([2]; 50 mg/kg + 2 Gy): 0 ± 0 mm^3
Tumor volume (mm^3), 42 days after administration ([2]; 50 mg/kg + 2 Gy): 0 ± 0 mm^3
Tumor volume (mm^3), 49 days after administration ([2]; 50 mg/kg + 2 Gy): 0 ± 0 mm^3
Tumor volume (mm^3), 56 days after administration ([2]; 50 mg/kg + 2 Gy): 0 ± 0 mm^3
Tumor volume (mm^3), 63 days after administration ([2]; 50 mg/kg + 2 Gy): 0 ± 0 mm^3
Tumor volume (mm^3), 70 days after administration ([2]; 50 mg/kg + 2 Gy): 0 ± 0 mm^3
animal death or euthanasia during the study ([2]; 50 mg/kg alone, one animal of the group): euthanized 22 days after the start of administration
Tumor volume (mm^3), 3 days after administration ([2]; 50 mg/kg alone): 189 ± 18 mm^3
Tumor volume (mm^3), 7 days after administration ([2]; 50 mg/kg alone): 375 ± 28 mm^3
Tumor volume (mm^3), 10 days after administration ([2]; 50 mg/kg alone): 568 ± 50 mm^3
Tumor volume (mm^3), 14 days after administration ([2]; 50 mg/kg alone): 946 ± 108 mm^3
Tumor volume (mm^3), 17 days after administration ([2]; 50 mg/kg alone): 1120 ± 131 mm^3
Tumor volume (mm^3), 23 days after administration ([2]; 50 mg/kg alone): 1808 ± 372 mm^3
RTV (21th day) [2, 4]: 0.01 ± 0.01
T/C (%) (21th day) [2, 4]: 0.08%
TGI (%) (21th day) [2, 4]: 108.64%
Tumor volume (mm^3) (0th day) ([2]; 50 mg/kg, QD + radiotherapy 2 Gy, 5-day radiotherapy, 2-day withdrawal): 106 ± 5 mm^3
Tumor volume (mm^3) (21th day) [2, 4]: 1 ± 1 mm^3
RTV (21th day) ([2]; 50 mg/kg, QD, alone): 14.18 ± 2.04
T/C (%) (21th day) ([2]; 50 mg/kg, QD, alone): 114.35%
TGI (%) (21th day) ([2]; 50 mg/kg, QD, alone): −15.37%
Tumor volume (mm^3) (0th day) ([2]; 50 mg/kg, QD, alone): 106 ± 5 mm^3
Tumor volume (mm^3) (21th day) ([2]; 50 mg/kg, QD, alone): 1501 ± 242 mm^3
